We go through one compound from patent US7132234B2, “Methods and compositions for the identification of anti-poxvirus agents” (priority 2003, dated 2006).

Where a SMILES comes first, the peptide text is derived from it. The star is where a group is joined. Cbz = O=C(OCc1ccccc1)*

The assay deals with 26S proteasome-mediated degradation of SP28. It counts as cell-based.

As for `CC(C)C[C@@H](C=O)NC(=O)[C@H](CC(C)C)NC(=O)[C@H](CC(C)C)NC(=O)OCc1ccccc1` [MG132] (Cbz-Leu-Leu-Leu-aldehyde), the “Stability of SP28 C173A/H199A mutant in cells” value was “also stabilized by MG132, although to a much lesser extent” and the “Stability of wild-type SP28 in cells” value was “remarkably enhanced stability of wild-type SP28”.
